Results on 30 compounds are retold here after patent US9394311B2, “Triazolo compounds as PDE10 inhibitors” (Hoffmann-La Roche Inc., priority 2012, dated 2016).

human PDE10A, sequence (Q9Y233 other isoform, or with tags, fused parts or gaps): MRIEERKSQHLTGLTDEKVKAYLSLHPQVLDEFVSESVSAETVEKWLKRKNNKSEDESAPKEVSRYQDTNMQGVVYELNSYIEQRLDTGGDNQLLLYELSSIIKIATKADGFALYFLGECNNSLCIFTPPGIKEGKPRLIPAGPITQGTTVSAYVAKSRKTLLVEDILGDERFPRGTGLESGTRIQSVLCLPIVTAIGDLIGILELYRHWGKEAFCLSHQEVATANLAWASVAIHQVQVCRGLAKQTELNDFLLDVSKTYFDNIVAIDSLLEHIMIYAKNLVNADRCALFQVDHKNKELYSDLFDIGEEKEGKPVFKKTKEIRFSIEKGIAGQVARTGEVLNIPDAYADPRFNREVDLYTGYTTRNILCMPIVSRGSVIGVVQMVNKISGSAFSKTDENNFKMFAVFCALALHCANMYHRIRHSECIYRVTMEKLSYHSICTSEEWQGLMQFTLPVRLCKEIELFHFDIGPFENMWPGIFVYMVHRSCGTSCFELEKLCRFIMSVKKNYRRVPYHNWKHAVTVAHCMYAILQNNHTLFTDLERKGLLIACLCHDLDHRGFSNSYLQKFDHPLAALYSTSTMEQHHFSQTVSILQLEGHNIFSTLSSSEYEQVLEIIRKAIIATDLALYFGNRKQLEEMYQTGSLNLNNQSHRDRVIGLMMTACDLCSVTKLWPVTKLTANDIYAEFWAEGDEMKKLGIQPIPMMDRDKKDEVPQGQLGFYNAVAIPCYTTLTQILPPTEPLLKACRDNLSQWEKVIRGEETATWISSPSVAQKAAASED

The assay deals with human PDE10A (Homo sapiens (Human), UniProt Q9Y233). The assay is described as follows: human PDE10A full length Scintillation Proximity Assay (SPA). It counts as biochemical. Particulars: PDE10A full length enzyme, 50 nM cGMP / [3H]-cGMP substrate, 20 minutes at room temperature. On the procedure:
The following test was carried out in order to determine the activity of the compounds of the present invention. PDE10 activity of the compounds of the present invention was determined using a Scintillation Proximity Assay (SPA)-based method similar to the one previously described (Fawcett, L. et al., Proc Natl Acad Sci USA (2000) 97(7):3702-3707).
The human PDE10A full length assay was performed in 96-well micro titer plates. The reaction mixture of 50 μl contained 20 mM HEPES pH=7.5/10 mM MgCl2/0.05 mg/ml BSA (Sigma cat. # A-7906), 50 nM cGMP (Sigma, cat. # G6129) and 50 nM [3H]-cGMP (GE Healthcare, cat. # TRK392 S.A. 13.2 Ci/mmol), 3.75 ng/well PDE10A enzyme (Enzo Life Science, Lausen, Switzerland cat # SE-534) with or without a specific test compound. A range of concentrations of the potential inhibitor was used to generate data for calculating the concentration of inhibitor resulting in 50% of the effect (e.g. IC50, the concentration of the competitor inhibiting PDE10A activity by 50%). Non-specific activity was tested without the enzyme. The reaction was initiated by the addition of the substrate solution (cGMP and [3H]-cGMP) and allowed to progress for 20 minutes at room temperature. The reaction was terminated by adding 25 μl of YSi-SPA scintillation beads (GE Healthcare, cat. # RPNQ0150) in 18 mM zinc sulphate solution (stop reagent). After 1 h under shaking, the plate was centrifuged one minute at 170 g to allow beads to settle. Afterwards, radioactive counts were measured on a Perkin Elmer Top-Count Scintillation plate reader.
A word on the IC50: it is the concentration needed to halve the response being measured. High values mean lower potency, low ones higher potency. Compound `CCc1ncc(C)c2nc(CCc3nc(N4CCCC4)nn3C)nn12` [Example 50, 5-Ethyl-8-methyl-2-(2-(1-methyl-3-(pyrrolidin-1-yl)-1H-1,2,4-triazol-5-yl)ethyl)-[1,2,4]triazolo[1,5-c]pyrimidine] showed a 50% inhibitory concentration (IC50) of 4.9 nM.

As to `Cc1cnc(C)n2nc(CCc3nc(N4CCCC4)nn3C)nc12` [Example 58, 5,8-Dimethyl-2-[2-(2-methyl-5-pyrrolidin-1-yl-2H-[1,2,4]triazol-3-yl)-ethyl]-[1,2,4]triazolo[1,5-c]pyrimidine], inhibition was half-maximal at 8.21 nM (IC50).

With `Cc1cnc(C)n2nc(CCc3nc(N4CCCC4C)nn3C)nc12` (stereo not drawn) [Example 111, 5,8-Dimethyl-2-{2-[2-methyl-5-(2-methyl-pyrrolidin-1-yl)-2H-[1,2,4]triazol-3-yl]-ethyl}-[1,2,4]triazolo[1,5-c]pyrimidine], the IC50 is 18.4 nM.

On to `Cc1c(Cl)cc(C(F)(F)F)c2nc(CCc3nc(N4CCCC4)n(C)n3)nn12` [Example 105, 6-Chloro-5-methyl-2-[2-(1-methyl-5-pyrrolidin-1-yl-1H-[1,2,4]triazol-3-yl)-ethyl]-8-trifluoromethyl-[1,2,4]triazolo[1,5-c]pyridine], for which the IC50 worked out at 0.44 nM.

With `Cc1c(Cl)cc(C(F)(F)F)c2nc(CCc3nc(N4CCCC4)nn3C3CC3)nn12` [Example 132, 6-Chloro-2-(2-(1-cyclopropyl-3-(pyrrolidin-1-yl)-1H-1,2,4-triazol-5-yl)ethyl)-5-methyl-8-(trifluoromethyl)-[1,2,4]triazolo[1,5-a]pyridine], the IC50 stood at 0.72 nM.

For the compound `Cc1c(Cl)cc(Br)c2nc(CCc3nc(N4CCCC4)nn3C)nn12` [Example 71, 8-Bromo-6-chloro-5-methyl-2-[2-(2-methyl-5-pyrrolidin-1-yl-2H-[1,2,4]triazol-3-yl)-ethyl]-[1,2,4]triazolo[1,5-a]pyridine], the IC50 is 1.01 nM.

In the case of `COCCOc1cc(Cl)c(C)n2nc(CCc3nc(N4CCCC4)nn3C)nc12` [Example 119, 6-Chloro-8-(2-methoxyethoxy)-5-methyl-2-[2-(2-methyl-5-pyrrolidin-1-yl-1,2,4-triazol-3-yl)ethyl]-[1,2,4]triazolo[1,5-a]pyridine], the IC50 is 0.23 nM.

In turn, `Cc1ncc(C)n2nc(CCc3nc(N4CCC4)nn3C)nc12` [Example 10, 2-[2-(5-Azetidin-1-yl-2-methyl-2H-[1,2,4]triazol-3-yl)-ethyl]-5,8-dimethyl-[1,2,4]triazolo[1,5-a]pyrazine] registered an IC50 of 1.4 nM.

Take `Cc1nc(C(F)(F)F)n2nc(CCc3nc(N4CCCC4)nn3C)nc2c1C` [Example 103, 7,8-Dimethyl-2-(2-(1-methyl-3-(pyrrolidin-1-yl)-1H-1,2,4-triazol-5-yl)ethyl)-5-(trifluoromethyl)-[1,2,4]triazolo[1,5-c]pyrimidine]: half-maximal inhibition (IC50) required 10.2 nM.

The compound `Cc1c(Br)cc(Cl)c2nc(CCc3nc(N4CCCC4)nn3C)nn12` [Example 72, 6-Bromo-8-chloro-5-methyl-2-(2-(1-methyl-3-(pyrrolidin-1-yl)-1H-1,2,4-triazol-5-yl)ethyl)-[1,2,4]triazolo[1,5-a]pyridine] registered an IC50 of 1.22 nM.

In the case of `COc1cc(Cl)c(C)n2nc(CCc3nc(N4CCCC4)nn3C)nc12` [Example 76, 6-Chloro-8-methoxy-5-methyl-2-[2-(2-methyl-5-pyrrolidin-1-yl-2H-[1,2,4]triazol-3-yl)-ethyl]-[1,2,4]triazolo[1,5-a]pyridine], the IC50 was 0.44 nM.

Take `COc1ccc(Cn2nc(N3CCCC3)nc2CCc2nc3c(Cl)cc(Cl)c(C)n3n2)cc1` [Example 61]: half-maximal inhibition (IC50) required 0.72 nM.

Compound `Cc1ncc(C)n2nc(CCc3nc(N4CC[C@@H](C)C4)nn3C)nc12` [Example 116, 5,8-Dimethyl-2-{2-[2-methyl-5-((R)-3-methyl-pyrrolidin-1-yl)-2H-[1,2,4]triazol-3-yl]-ethyl}-[1,2,4]triazolo[1,5-a]pyrazine] returned an IC50 of 8.94 nM.

As for `Cc1cc(C)n2nc(CCc3nc(N(C)C4CC4)nn3C)nc2n1` [Example 34, Cyclopropyl-{5-[2-(5,7-dimethyl-[1,2,4]triazolo[1,5-a]pyrimidin-2-yl)-ethyl]-1-methyl-1H-[1,2,4]triazol-3-yl}-methyl-amine], the IC50 is 128 nM.

The compound `CCc1cnc(C)n2nc(CCc3nc(N4CCCC4)nn3C)nc12` [Example 75, 8-Ethyl-5-methyl-2-(2-(1-methyl-3-(pyrrolidin-1-yl)-1H-1,2,4-triazol-5-yl)ethyl)-[1,2,4]triazolo[1,5-c]pyrimidine] showed an IC50 of 3.78 nM.

Compound `Cc1c(Cl)cc(OCCN2CCOCC2)c2nc(CCc3nc(N4CCCC4)nn3C)nn12` [Example 121, 4-[2-[[6-Chloro-5-methyl-2-[2-(2-methyl-5-pyrrolidin-1-yl-1,2,4-triazol-3-yl)ethyl]-[1,2,4]triazolo[1,5-a]pyridin-8-yl]oxy]ethyl]morpholine] yielded an IC50 of 1.37 nM.

`Cc1c(Cl)cc(C2CC2)c2nc(CCc3nc(N4CCCC4)nn3C)nn12` [Example 77, 6-Chloro-8-cyclopropyl-5-methyl-2-[2-(2-methyl-5-pyrrolidin-1-yl-2H-[1,2,4]triazol-3-yl)-ethyl]-[1,2,4]triazolo[1,5-a]pyridine] showed an IC50 of 9.99 nM.

`Cc1nc(C)n2nc(CCc3nc(N4CCCC4)nn3C)nc2c1Cl` [Example 44, 8-Chloro-5,7-dimethyl-2-(2-(1-methyl-3-(pyrrolidin-1-yl)-1H-1,2,4-triazol-5-yl)ethyl)-[1,2,4]triazolo[1,5-c]pyrimidine] showed an IC50 of 9.41 nM.

Regarding `Cn1nc(N2CCCC2)nc1CCc1nc2cc(C(F)(F)F)c(F)c(N)n2n1` [Example 63, 6-Fluoro-2-(2-(1-methyl-3-(pyrrolidin-1-yl)-1H-1,2,4-triazol-5-yl)ethyl)-7-(trifluoromethyl)-[1,2,4]triazolo[1,5-a]pyridin-5-amine], the half-maximal inhibitory concentration (IC50) is 32.4 nM.

Regarding `Cc1c(Cl)cc(OC(F)F)c2nc(CCc3nc(N4CCCC4)nn3C)nn12` [Example 95, 6-Chloro-8-difluoromethoxy-5-methyl-2-[2-(2-methyl-5-pyrrolidin-1-yl-2H-[1,2,4]triazol-3-yl)-ethyl]-[1,2,4]triazolo[1,5-c]pyridine], the half-maximal inhibitory concentration (IC50) was found to be 0.23 nM.

Take `COc1ccc(Cn2nc(C#Cc3cnc4ccc(Cl)cc4n3)nc2N2CCCC2)cc1` [Example 133, 7-chloro-2-((1-(4-methoxybenzyl)-5-(pyrrolidin-1-yl)-1H-1,2,4-triazol-3-yl)ethynyl)quinoxaline]: the IC50 came to 17.8 nM.

Regarding `Cc1cccc2nc(CCc3nc(N4CCCC4)nn3C)nn12` [Example 29, 5-Methyl-2-(2-(1-methyl-3-(pyrrolidin-1-yl)-1H-1,2,4-triazol-5-yl)ethyl)-[1,2,4]triazolo[1,5-a]pyridine], the IC50 was 55.9 nM.

For the compound `Cc1cc(Cl)c(C)n2nc([C@H]3C[C@@H]3c3nc(N4CCCC4)nn3C)nc12` [Example 46, 6-Chloro-5,8-dimethyl-2-[(1S,2S)-2-(2-methyl-5-pyrrolidin-1-yl-2H-[1,2,4]triazol-3-yl)-cyclopropyl]-[1,2,4]triazolo[1,5-a]pyridine], the IC50 is 4.98 nM.

The compound `Cc1ccc2nc(CCc3nc(N4CCCC4)nn3C)nn2c1C` [Example 40, 5,6-Dimethyl-2-(2-(1-methyl-3-(pyrrolidin-1-yl)-1H-1,2,4-triazol-5-yl)ethyl)-[1,2,4]triazolo[1,5-a]pyridine] registered an IC50 of 10.2 nM.

On to `Cc1c(Cl)ccc2nc(CCc3nc(N4CCCC4)nn3C)nn12` [Example 27, 6-Chloro-5-methyl-2-(2-(1-methyl-3-(pyrrolidin-1-yl)-1H-1,2,4-triazol-5-yl)ethyl)-[1,2,4]triazolo[1,5-a]pyridine], for which it took 0.98 nM to reach half-maximal inhibition (IC50).

Consider `Cc1ncc(C)n2nc(CCc3nc(N4CC5CCC5C4)nn3C)nc12` (stereo not drawn) [Example 99, 2-{2-[5-(3-Aza-bicyclo[3.2.0]hept-3-yl)-2-methyl-2H-[1,2,4]triazol-3-yl]-ethyl}-5,8-dimethyl-[1,2,4]triazolo[1,5-a]pyrazine], for which half-maximal inhibition (IC50) required 273 nM.

The compound `Cc1nc2ccccc2nc1/C=C/c1nc(N2CCCC2)nn1C` [Example 15, 2-Methyl-3-[2-(2-methyl-5-pyrrolidin-1-yl-2H-[1,2,4]triazol-3-yl)-vinyl]-quinoxaline] showed an IC50 of 105 nM.

In turn, `Cc1ncc(C)n2nc(/C=C/c3nc(N4CCCCCC4)nn3C)nc12` [Example 102, 2-[(E)-2-(5-Azepan-1-yl-2-methyl-2H-[1,2,4]triazol-3-yl)-vinyl]-5,8-dimethyl-[1,2,4]triazolo[1,5-a]pyrazine] had an IC50 of 179 nM.

As to `Cn1nc(N2CCCC2)nc1CCc1nc2ccc(C#N)cn2n1` [Example 53, 2-(2-(1-Methyl-3-(pyrrolidin-1-yl)-1H-1,2,4-triazol-5-yl)ethyl)-[1,2,4]triazolo[1,5-a]pyridine-6-carbonitrile], the IC50 turned out to be 381 nM.

`Clc1ccc2ncc(CCc3n[nH]c(N4CCCC4)n3)nc2c1` [Example 134, 7-chloro-2-(2-(5-(pyrrolidin-1-yl)-1H-1,2,4-triazol-3-yl)ethyl)quinoxaline] had an IC50 of 33 nM.
